According to PubChem BioAssay (NCI):
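A five-concentration, 48-hour dose response in 96-well plates underlies each endpoint, interpolated linearly between surrounding concentrations. GI50 is the concentration that inhibits growth by half. TGI: concentration producing complete growth inhibition.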

Tests used:
Test in all cases: DTP human tumour cell line panel, 48 h
ACHN renal = test system: ACHN renal
EKVX NSCLC = test system: EKVX NSCLC
HOP-62 NSCLC = test system: HOP-62 NSCLC
K-562 leukemia = test system: K-562 leukemia
NCI-H23 lung = test system: NCI-H23 lung
NCI-H460 lung = test system: NCI-H460 lung
OVCAR-8 ovarian = test system: OVCAR-8 ovarian
SNB-19 CNS = test system: SNB-19 CNS
UO-31 renal = test system: UO-31 renal
MOLT-4 leukemia = test system: MOLT-4 leukemia

SMILES | TGI (ACHN renal) | TGI (EKVX NSCLC) | TGI (HOP-62 NSCLC) | TGI (K-562 leukemia) | TGI (NCI-H23 lung) | TGI (NCI-H460 lung) | TGI (OVCAR-8 ovarian) | TGI (SNB-19 CNS) | TGI (UO-31 renal) | TGI (MOLT-4 leukemia) | GI50 (ACHN renal) | GI50 (HOP-62 NSCLC) | GI50 (K-562 leukemia) | GI50 (MOLT-4 leukemia) | GI50 (NCI-H23 lung) | GI50 (NCI-H460 lung) | GI50 (OVCAR-8 ovarian) | GI50 (SNB-19 CNS) | GI50 (UO-31 renal) | GI50 (EKVX NSCLC)
O=C(Cc1c(C(=O)Nc2ccccc2)sc(C(=O)Nc2ccccc2)c1CC(=O)Nc1ccccc1)Nc1ccccc1 | > 100 µM | > 100 µM | > 100 µM | > 100 µM | > 100 µM | > 100 µM | > 100 µM | > 100 µM | > 100 µM | – | – | – | – | – | – | – | – | – | – | –
COC1OC(CO)C(O)C(NC(=O)N(C)N=O)C1O (configuration not stated) | > 100 µM | > 100 µM | – | > 100 µM | > 100 µM | > 100 µM | > 100 µM | > 100 µM | > 100 µM | > 100 µM | – | – | – | – | – | – | – | – | – | –
Cc1cc2c(=O)cc(-c3ccc(Cl)cc3Cl)oc2c(C(=O)O)c1C | > 100 µM | > 100 µM | – | > 100 µM | > 100 µM | > 100 µM | > 100 µM | > 100 µM | > 100 µM | > 100 µM | – | – | – | – | – | – | – | – | – | –
C#CCOCCCC(=O)O | > 100 µM | > 100 µM | > 100 µM | > 100 µM | > 100 µM | > 100 µM | > 100 µM | > 100 µM | – | > 100 µM | – | – | – | – | – | – | – | – | – | –
CC(=O)N[C@@H](Cc1ccc(OP(=O)(O)O)cc1)C(=O)N[C@H]1CCC(=O)N2CCC[C@@H](C(=O)NCc3cccc4ccccc34)N2C1=O | > 25 µM | – | > 25 µM | > 25 µM | > 25 µM | > 25 µM | > 25 µM | > 25 µM | > 25 µM | > 25 µM | > 25 µM | > 25 µM | > 25 µM | > 25 µM | > 25 µM | > 25 µM | > 25 µM | > 25 µM | > 25 µM | –
CC[C@H]1[C@@H](C)C=C[C@@H](C)N1S(=O)(=O)c1ccc(C)cc1 | > 100 µM | > 100 µM | > 100 µM | > 100 µM | > 100 µM | – | > 100 µM | 35.3 µM | 27.5 µM | > 100 µM | – | – | – | – | – | – | – | – | – | –
Fc1ccc(-c2nn3c(COc4ccccc4Cl)nnc3s2)cc1Oc1ccccc1 | 65.3 µM | > 100 µM | 40.1 µM | > 100 µM | 43.9 µM | > 100 µM | > 100 µM | 57.6 µM | > 100 µM | – | 25 µM | 19.4 µM | > 100 µM | – | 21.2 µM | 42.6 µM | 49.9 µM | 23.4 µM | 27.1 µM | 49 µM
CCOC(=O)c1c2c(n(Cc3ccccc3)c1C)-c1nc[nH]c1C(=O)C2=O | 27.9 µM | 32 µM | 33.2 µM | 19.1 µM | – | 23.2 µM | 28 µM | 30.7 µM | 28.4 µM | 10.3 µM | 14.8 µM | 18.6 µM | 3.08 µM | 2.84 µM | – | 11.2 µM | 14.8 µM | 17 µM | 14.7 µM | 17.8 µM
c1ccc2c(CNCCCN3CCN(CCCNCc4cccc5ccccc45)CC3)cccc2c1 | 6.85 µM | 13.1 µM | 34.4 µM | – | 23.6 µM | 2.81 µM | 4.03 µM | – | 3.22 µM | 2.92 µM | – | – | – | – | – | – | – | – | – | –
COc1ccc(C(=O)O[C@@H]2CCN3CC[C@H](C)[C@H]23)cc1 | > 100 µM | > 100 µM | > 100 µM | – | > 100 µM | > 100 µM | > 100 µM | > 100 µM | > 100 µM | > 100 µM | – | – | – | – | – | – | – | – | – | –
Cc1cn2c(/C=N/NC3=NCCN3)c(-c3ccc(Cl)c([N+](=O)[O-])c3)nc2s1 | – | 10.8 µM | 7.17 µM | 2.34 µM | 27 µM | > 50 µM | 2.45 µM | > 50 µM | 1.44 µM | – | – | 1.71 µM | 1.08 µM | – | 5.62 µM | 2.34 µM | 1.12 µM | 1.48 µM | 0.715 µM | 3.07 µM
CC1=CC=C2C(C)(C)CC[C@@H]3OC(=O)[C@H]1[C@]23C | > 100 µM | > 100 µM | > 100 µM | > 100 µM | > 100 µM | – | > 100 µM | > 100 µM | > 100 µM | > 100 µM | – | – | – | – | – | – | – | – | – | –
O=C1NC(=N[C@@H]2C[C@H]2c2ccccc2)S/C1=C\c1ccc2ncccc2c1 | 8.69 µM | – | 6.38 µM | > 25 µM | 20.8 µM | 6.79 µM | 9.69 µM | 24.8 µM | 6.78 µM | 21.8 µM | 1.29 µM | 1.67 µM | 1.42 µM | 4.29 µM | 3.87 µM | 1.32 µM | 2.05 µM | 2.98 µM | 2.06 µM | –
CCCCN(CCCC)C(=O)C(=O)C(C(=O)C(=O)OC)c1nc2ccccc2o1 (configuration not stated) | > 100 µM | – | > 100 µM | > 100 µM | > 100 µM | > 100 µM | > 100 µM | > 100 µM | > 100 µM | > 100 µM | – | – | – | – | – | – | – | – | – | –
CN1C[C@@H]2CC(=O)CC[C@@H]2C[C@H]1C#N | > 100 µM | – | > 100 µM | > 100 µM | – | > 100 µM | > 100 µM | > 100 µM | > 100 µM | > 100 µM | – | – | – | – | – | – | – | – | – | –
COc1ccc(-c2nc(Nc3ccc(F)cc3)nc(Nc3ccc4c(c3)nc(C)n4Cc3ccccc3)n2)cc1 | > 100 µM | – | > 100 µM | > 100 µM | > 100 µM | 20.9 µM | > 100 µM | > 100 µM | > 100 µM | > 100 µM | 3.13 µM | 8.47 µM | 3.44 µM | 3.44 µM | 6.54 µM | 3.35 µM | 3.45 µM | 6.9 µM | 3.53 µM | –
COc1ccc(/C=C/C(=O)c2ccc(B(O)O)cc2)cc1O | > 84.7 µM | – | > 57.2 µM | > 100 µM | 69.4 µM | > 83.4 µM | > 77.9 µM | > 64.3 µM | > 92.8 µM | > 100 µM | 22.1 µM | 18.5 µM | 2.86 µM | 10.9 µM | 21 µM | 19.8 µM | 28.3 µM | 18.7 µM | 16.7 µM | –
CN(CC(=O)O)S(=O)(=O)c1ccc(Cl)cc1 | > 100 µM | > 100 µM | – | > 100 µM | > 100 µM | > 100 µM | > 100 µM | > 100 µM | > 100 µM | > 100 µM | – | – | – | – | – | – | – | – | – | –
S=c1sc2sc(=S)sc2s1 | > 100 µM | – | > 100 µM | > 100 µM | – | 47.7 µM | > 100 µM | > 100 µM | 81.8 µM | > 100 µM | – | – | – | – | – | – | – | – | – | –
O=C([CH-]C(=O)c1ccccc1)c1ccccc1.O=C([CH-]C(=O)c1ccccc1)c1ccccc1.[CH2-]CCC.[CH2-]CCC.[Sn+4] | 1.6 µM | 2.7 µM | 3.41 µM | 0.746 µM | – | 4.14 µM | 2.46 µM | 1.67 µM | 2.29 µM | 0.754 µM | 0.457 µM | 1.95 µM | 0.15 µM | 0.253 µM | – | 1.76 µM | 0.939 µM | 0.441 µM | 1.08 µM | 1.17 µM
O=C(O)c1cc(C(=O)C(=O)c2cc(C(=O)O)c(O)c3ccccc23)c2ccccc2c1O | > 100 µM | > 100 µM | > 100 µM | > 100 µM | > 100 µM | > 100 µM | > 100 µM | > 100 µM | > 100 µM | – | – | – | – | – | – | – | – | – | – | –
CC12OC(C(=O)C13CC3)C1C(=O)c3cccc(O)c3C(=O)C12 (configuration not stated) | > 39.1 µM | 37.6 µM | 19.7 µM | – | 22.7 µM | 68.3 µM | > 38.5 µM | 40.1 µM | > 100 µM | > 100 µM | 2.95 µM | 7.21 µM | – | 1.83 µM | 7.55 µM | 18.6 µM | 8.12 µM | 10.4 µM | 23.1 µM | 11.8 µM
O=C1/C(=C\c2ccc(Cl)cc2)CN(C(=O)c2ccccc2)C/C1=C\c1ccc(Cl)cc1 | 8.17 µM | – | 6.41 µM | > 100 µM | 12.5 µM | > 84.7 µM | > 100 µM | 19.3 µM | 5.33 µM | > 100 µM | 2.73 µM | 2.45 µM | 1.98 µM | 4.25 µM | 3.13 µM | 5.97 µM | 3.41 µM | 3.27 µM | 1.83 µM | –
ClCCN(CCCl)c1ccc(OCc2ccccc2)cc1 | > 100 µM | – | 30.4 µM | > 100 µM | 36.6 µM | 19.8 µM | 75.7 µM | > 100 µM | 41.4 µM | 40 µM | 2.1 µM | 4.05 µM | 7.02 µM | 1.74 µM | 4.88 µM | 0.603 µM | 3.3 µM | 6.15 µM | 3.99 µM | –
Cc1cc2c(=O)cc(-c3ccc(Cl)c(Cl)c3)oc2c(C(=O)O)c1C | > 100 µM | > 100 µM | – | > 100 µM | > 100 µM | > 100 µM | > 100 µM | > 100 µM | > 100 µM | > 100 µM | – | – | – | – | – | – | – | – | – | –
CN1C(=O)CNS1(=O)=O | > 100 µM | – | > 100 µM | > 100 µM | > 100 µM | > 100 µM | > 100 µM | > 100 µM | > 100 µM | > 100 µM | – | – | – | – | – | – | – | – | – | –
Cc1ccccc1C(C#N)/C(=N/NC(N)=S)C(=O)Nc1c(C)cccc1C (configuration not stated) | > 100 µM | > 100 µM | > 100 µM | – | > 100 µM | > 100 µM | > 100 µM | > 100 µM | > 100 µM | > 100 µM | – | – | – | – | – | – | – | – | – | –
